Patent US20220125745A1, “PHARMACEUTICAL COMPOSITION FOR CO-ADMINISTRATION OF ACIDOSIS-INDUCING DRUG” (HAIM BIO CO., LTD., priority 2018, published 2022)
Read-outs that look alike come from different tables or passages of the source.

Columns and labels:
[1] = test system: L132 cells (normal cells); assay: Lactate assay (luminescence) in L132 cells, candidate substance alone or combined with a substance that causes lactic acidosis; format: cell-based; details: L132; for Luminescence intensity (%), Berberine (10 μM) − / Luminescence intensity (%), Linezolid (200 μM) − / Luminescence intensity (%), Phenformin (100 μM) − / activity at 50 µM: candidate 50 μM alone, 24 h, vs negative control, mean ± SEM; for activity at 50 µM: Homo sapiens
Procedure: (§1) To identify the effects of administration of the candidate substances for lactic acidosis treatment as described in Example 1 in combination with the above-mentioned substances that cause lactic acidosis, A549 cells (cancer cells) or L132 cells (normal cells) were respectively seeded in 96- or 24-well plates at a concentration of 1×10^4 or 3×10^5 cells/well, and incubation was performed overnight. Administration of the candidate substance for acidosis treatment in combination with the substance that causes lactic acidosis was performed and incubation was further performed for 24 hours. For the candidate substances for acidosis treatment, each substance was administered at a uniform concentration of 50 μM; and for the substances that cause lactic acidosis, metformin was administered at 1 to 100 μM, isoniazid was administered at 1 to 500 μM, berberine was administered at 10 μM, linezolid was administered at 200 μM, and phenformin was administered at 100 μM. All substances were dissolved in dimethyl sulfoxide (DMSO, Sigma-Aldrich Corporation, St. Louis, Mo., USA), and the substances to be administered in combination were administered simultaneously. Subsequently, 50 μl of the cell culture solution obtained by being diluted with Dulbecco's Phosphate-Buffered Saline (DPBS; Wellgene, Korea), and 50 μl of the lactate assay reaction buffer (Promega, Madison, Wis., USA) were mixed and the mixture was added in a 96-well plate. Reaction was allowed to proceed at room temperature for 1 hour. Then, luminescence was measured with a spectrophotometer (Synergy HTX Multi-Reader; BioTek, Winooski, Vt., USA). At the same time, the number of cells in each sample was measured with a cell viability analysis kit (Cell Counting Kit-8; Dojindo Molecular Technologies, Inc., Kumamoto, Japan), and calculation was performed so that the lactic acid measurement value in each sample could be compared with that in the negative control for the same number of cells.

[2] = test system: A549 cells (cancer cells); assay: Lactate assay (luminescence) in A549 cells, candidate substance alone or combined with a substance that causes lactic acidosis; format: cell-based; details: A549; for Luminescence intensity (%), Berberine (10 μM) − / Luminescence intensity (%), Linezolid (200 μM) − / Luminescence intensity (%), Phenformin (100 μM) − / activity at 50 µM: candidate 50 μM alone, 24 h, vs negative control, mean ± SEM; for activity at 50 µM: Homo sapiens
Procedure: as §1

[3] = candidate 50 μM + berberine 10 μM, relative to berberine alone (PC)
[4] = candidate 50 μM + linezolid 200 μM, relative to linezolid alone (PC)
[5] = candidate 50 μM + phenformin 100 μM, relative to phenformin alone (PC)
[6] = no berberine, read-out: Luminescence intensity (%), Berberine (10 μM) −
[7] = no linezolid, read-out: Luminescence intensity (%), Linezolid (200 μM) −
[8] = no phenformin, read-out: Luminescence intensity (%), Phenformin (100 μM) −

Structure (SMILES)	Lactic acid value vs. PC (%) [1, 3] [%]	Lactic acid-decreasing rate vs. PC (%) [1, 3] [%]	Lactic acid value vs. PC (%) [1, 4] [%]	Lactic acid-decreasing rate vs. PC (%) [1, 4] [%]	Lactic acid value vs. PC (%) [1, 5] [%]	Lactic acid-decreasing rate vs. PC (%) [1, 5] [%]	Luminescence intensity (%), Berberine (10 μM) − ([1]; no berberine) [%]	Luminescence intensity (%), Linezolid (200 μM) − ([1]; no linezolid) [%]	Lactic acid value vs. PC (%) [2, 3] [%]	Lactic acid-decreasing rate vs. PC (%) [2, 3] [%]	Lactic acid value vs. PC (%) [2, 4] [%]	Lactic acid-decreasing rate vs. PC (%) [2, 4] [%]	Lactic acid value vs. PC (%) [2, 5] [%]	Lactic acid-decreasing rate vs. PC (%) [2, 5] [%]	activity at 50 µM [1, 6] [%]	activity at 50 µM [1, 7] [%]	activity at 50 µM [1, 8] [%]	activity at 50 µM [2, 6] [%]	activity at 50 µM [2, 7] [%]	activity at 50 µM [2, 8] [%]	further results
Nc1c(O)cccc1C(=O)CC(N)C(=O)O (racemic) [3-hydroxy-DL-kynurenine, 3-Hydroxy-DL-kynurenine]	87.31	12.69	86.39	13.61	91.76	8.24	87.48 ± 1.65	87.48 ± 1.65	92.55	7.45	83.68	16.32	91.34	8.66	–	–	–	–	–	–	Luminescence intensity (%), Phenformin (100 μM) − ([1]; no phenformin): 87.48 ± 1.65 %; Luminescence intensity (%), Berberine (10 μM) − ([2]; no berberine): 91.52 ± 1.46 %; Luminescence intensity (%), Linezolid (200 μM) − ([2]; no linezolid): 91.52 ± 1.46 %; Luminescence intensity (%), Phenformin (100 μM) − ([2]; no phenformin): 91.52 ± 1.46 %
CCCCNC(=O)n1c(NC(=O)OC)nc2ccccc21 [Benomyl]	85.38	14.62	84.83	15.17	93.03	6.97	–	–	88.55	11.45	84.32	15.68	92.74	7.26	85.4 ± 1.55	85.4 ± 1.55	85.4 ± 1.55	87.7 ± 1.21	87.7 ± 1.21	87.7 ± 1.21	–
N.N.[Cl][Pt][Cl] [CDDP, Cis-diamminedichloridoplatinum]	71.42	28.58	68.28	31.72	83.98	16.02	76.97 ± 2.13	76.97 ± 2.13	74.20	25.80	78.37	21.63	80.03	19.97	–	–	–	–	–	–	Luminescence intensity (%), Phenformin (100 μM) − ([1]; no phenformin): 76.97 ± 2.13 %; Luminescence intensity (%), Berberine (10 μM) − ([2]; no berberine): 75.98 ± 2.34 %; Luminescence intensity (%), Linezolid (200 μM) − ([2]; no linezolid): 75.98 ± 2.34 %; Luminescence intensity (%), Phenformin (100 μM) − ([2]; no phenformin): 75.98 ± 2.34 %
CS(=O)(=O)Nc1ccc(-c2coc3cc(OCc4cccc(C(=O)O)c4)ccc3c2=O)cc1 [CVT-10216, 3-[[[3-[4-[(methylsulfonyl)amino]phenyl]-4-oxo-4H-chromen-7-yl]oxy]methyl]benzoic acid]	103.15	−3.15	100.28	−0.28	99.21	0.79	–	–	95.79	4.21	92.93	7.07	92.13	7.87	97.7 ± 1.1	97.7 ± 1.1	97.7 ± 1.1	96.5 ± 1.04	96.5 ± 1.04	96.5 ± 1.04	–
CCCNC(=O)NS(=O)(=O)c1ccc(Cl)cc1 [Chlorpropamide]	102.38	−2.38	90.11	9.89	96.68	3.32	–	–	90.69	9.31	86.81	13.19	94.87	5.13	92.4 ± 1.05	92.4 ± 1.05	92.4 ± 1.05	97 ± 1.24	97 ± 1.24	97 ± 1.24	–
CC(C)=CCCC(C)=CC=O [Citral]	102.03	−2.03	102.02	−2.02	99.57	0.43	–	–	95.67	4.33	103.20	−3.20	93.80	6.20	102.4 ± 0.98	102.4 ± 0.98	102.4 ± 0.98	100.5 ± 0.81	100.5 ± 0.81	100.5 ± 0.81	–
N#CN [Cyanamide]	99.86	0.14	88.99	11.01	98.19	1.81	–	–	96.56	3.44	87.76	12.24	98.83	1.17	92.1 ± 1.56	92.1 ± 1.56	92.1 ± 1.56	97.02 ± 0.81	97.02 ± 0.81	97.02 ± 0.81	–
CCN(CC)c1ccc(C=O)cc1 [DEAB, Diethylaminobenzaldehyde]	106.10	−6.10	105.21	−5.21	92.79	7.21	93.41 ± 2.71	93.41±2.71	91.95	8.05	87.66	12.34	94.28	5.72	–	–	–	–	–	–	Luminescence intensity (%), Phenformin (100 μM) − ([1]; no phenformin): 93.41 ± 2.71 %; Increase of lactic acid level as compared to the positive control group ([1]; in combination with linezolid, stated in text as an increase): 5.21%; Luminescence intensity (%), Berberine (10 μM) − ([2]; no berberine): 96.72 ± 0.78 %; Luminescence intensity (%), Linezolid (200 μM) − ([2]; no linezolid): 96.72 ± 0.78 %; Luminescence intensity (%), Phenformin (100 μM) − ([2]; no phenformin): 96.72 ± 0.78 %
